Drawing on US7947701B2, “Dual molecules containing peroxy derivative, the synthesis and therapeutic applications thereof” (Sanofi-Aventis, priority 2003, dated 2011), this text covers IC50 for five compounds.

The test system of test [1] is P. falciparum FcM29-Cameroon strain. Nature of the test: Antimalarial chemosensitivity test (radioactive micromethod, tritiated hypoxanthine incorporation) on FcM29-Cameroon strain. The test is classed as cell-based. Conditions: Plasmodium falciparum, Erythrocyte, read-out: IC50 (concentration required to inhibit parasite growth by 50%). As to the method:
(§1) The P. falciparum strains are cultured continuously according to the method of Trager and Jensen (Science, 1976, 193, 673-675): the parasites are maintained in human red blood cells (O±), diluted to a blood parasite level of 2% in RPMI 1640 medium supplemented with 25 mM of Hepes+24 mM NaHCO3+2 mM L-glutamine and with 5% of human serum of all groups. The parasites are incubated at 37° C. in a humid atmosphere and at 5% CO2.
The antimalarial activity tests are carried out according to the radioactive micromethod of Desjardins et al. (Antimicrob. Agents Chemother., 1979, 16, 710-718). Each molecule is tested in triplicate. The assays are carried out in 96-well microplates. The P. falciparum strains are cultured in solutions of RPMI 1640 supplemented with 5% of human serum with a haematocrit at 2% and a blood parasite level at 1.5%. For each assay, the parasites are incubated with decreasing concentrations of the test compounds for 48 h at 37° C., in a humid atmosphere and at 5% CO2. Artemisinin and chloroquine diphosphate are used as reference molecules. The first dilution of the test compounds is effected at 1 mg/ml in dimethyl sulphoxide. The dilution range for the successive daughter solutions is also prepared in dimethyl sulphoxide. Each daughter dilution is then diluted to 1/50th in RPMI 1640 supplemented with 5% of human serum, all the dilutions being carried out at 37° C. These dilutions are then added to the parasites in culture in the microplates. After addition of the test compound, the parasites are cultured in RPMI 1640 containing 5% of human serum and 1% of dimethyl sulphoxide. The parasite growth is measured by incorporation of tritiated hypoxanthine (added 24 h after the beginning of exposure to the test compound) and compared to the incorporation in the absence of the test compound (taken as 100%). The IC50 values (concentrations required to inhibit parasite growth by 50%) are determined by plotting the percentage inhibition as a function of the logarithm of the dose, using the GraphPad Prism 4® processing software (GraphPad Software Inc., 5755 Oberlin Drive, #110, San Diego, Calif. 92121, USA).

Test [2] concerns P. falciparum FcB1-Columbia strain. Nature of the test: Antimalarial chemosensitivity test (radioactive micromethod, tritiated hypoxanthine incorporation) on FcB1-Columbia strain. The test is classed as cell-based. Conditions: Plasmodium falciparum, read-out: IC50 (concentration required to inhibit parasite growth by 50%). As to the method: as §1
The antimalarial activity tests are carried out according to the radioactive micromethod of Desjardins et al. (Antimicrob. Agents Chemother., 1979, 16, 710-718). Each molecule is tested in triplicate. The assays are carried out in 96-well microplates. The P. falciparum strains are cultured in solutions of RPMI 1640 supplemented with 5% of human serum with a haematocrit at 2% and a blood parasite level at 1.5%. For each assay, the parasites are incubated with decreasing concentrations of the test compounds for 48 h at 37° C., in a humid atmosphere and at 5% CO2. Artemisinin and chloroquine diphosphate are used as reference molecules. The first dilution of the test compounds is effected at 1 mg/ml in dimethyl sulphoxide. […] The parasite growth is measured by incorporation of tritiated hypoxanthine (added 24 h after the beginning of exposure to the test compound) and compared to the incorporation in the absence of the test compound (taken as 100%). […]

Molecules are shown by their SMILES. Like-named read-outs stand apart in the source and are kept apart here.

As for `CC(C)C1=C[C@H]2OC3(CCN(CCCNc4ccnc5cc(Cl)ccc45)CC3)OO[C@@]2(C)CC1` [PA1011], the IC50 in test [1] (48 h) stood at 13 nM.
Same read-out and setting: next, `Clc1ccc2c(NCCN3CCC4(CC3)OOC3(O4)C4CC5CC(C4)CC3C5)ccnc2c1` (stereo not shown) [PA1021, 7-Chloro-N-[2-(1H-dispiro[piperidine-4,3′-[1,2,4]trioxolane-5′,2″-tricyclo[3.3.1.1^3,7]decan]-1-yl)ethyl]quinolin-4-amine]: 6 nM; `CN(C)c1ccc2nccc(NCCN3CCC4(CC3)OOC3(O4)C4CC5CC(C4)CC3C5)c2c1` (stereo not shown) [PA1026, N^4-[2-(1H-Dispiro[piperidine-4,3,-[1,2,4]trioxolane-5′,2″-tricyclo[3.3.1.1^3,7]decan]-1-yl)ethyl]-N^6,N^6-dimethylquinoline-4,6-diamine]: 4.4 nM.
For `C[C@@H]1CC[C@H]2[C@@H](C)C(=O)O[C@@H]3O[C@@]4(C)CC[C@@H]1[C@]32OO4` [artemisinin], the IC50 in test [2] (Erythrocyte, FcB1-Columbia strain (moderately chloroquine resistant), in human red blood cells, 48 h incubation) stood at 11 nM; in test [1] (FcM29-Cameroon strain (very strongly chloroquine resistant), in human red blood cells, 48 h incubation) it was 5 nM.
Take `CCN(CC)CCCC(C)Nc1ccnc2cc(Cl)ccc12` (stereo not shown) [chloroquine]: the IC50 in test [2] (FCB1, Erythrocyte, 48 h) was determined as 66 nM; in test [1] (48 h), 258 nM.
